In US20230390315A1, “COMPOSITIONS AND METHODS FOR TREATING ISCHEMIC CONDITIONS” (The Regents of the University of California, priority 2020, published 2023):

Assays:
HUVEC = HUVEC scratch assay; assay type: cell-based, human; conditions: 40 uM ManN in combination with 50 ng/ml VEGF
Description: BCECs (passage 6-10) and HUVEC (passage 6-8) were used in this assay. Cells were grown until about 80% confluency in 6-well plates, washed twice with PBS and then starved in serum-free DMEM (low Glucose, Hyclone) for 5 hrs before making a “scratch” using 1 ml tip. Cell monolayers were briefly washed once with serum-free media, followed by various treatments in media containing 1% FBS. 48 hrs later, the assay was stopped by adding 2 ml 4% paraformaldehyde. 20 min later, fixed cells were stained with 1 ml Crystal Violet (Sigma). Plates were washed gently under the running tap water and air-dried before taking pictures. Images were acquired by ZEISS Discovery V8 SteREO microscopy equipped with PixeLINK Megapixel FireWire camera. Quantification of wound closure was done using AxioVision LE Rel.4.4 software. Six images were taken for each sample and six measurements (in pixel) were made on each image using AxioVision LE Rel.4.4 software.

VEGFR2 = assay: VEGF/VEGFR2 expression, cell surface amount and VEGFR2 activation in BCECs; assay type: cell-based, bovine
Description: Cells were allowed to reach 80% confluency in 12-well plates. […] At various time points, plates were taken out of the incubator and kept on ice. Cell monolayers were first washed once with ice-cold PBS before lysis with 250 μl of Pierce RIPA buffer (ThermoFisher Scientific, Rockford, IL) or use 50 mM Tris-HCl (pH 7.6), 150 mM NaCl, 10% Glycerol, 1% NP-40 containing protease/Phosphatase inhibitor cocktail (100×) (Cell signaling, #5872). Lysates were collected and mixed with 4×Bolt LDS Sample Buffer (Novex, Carlsbad, CA) in the presence of Halt protease inhibitors and phosphatase inhibitor cocktail (ThermoFisher scientific, #NP0007). The samples were subjected to SDS-PAGE (Bolt 4-12% Bis-Tris Plus, Invitrogen) using Bolt MES SDS running buffer or NuPAGE 3-8% Tris-Acetate gel using Tris-Acetate SDS running buffer (Novex). HUVECs (passage 6-8) were plated in EBM-2 basal medium (Lonza) with 0.2% FBS. […] Equal amounts of protein lysates were analyzed by SDS-PAGE and blotted with the indicated antibodies. Proteins were transferred using Tris-Glycine buffer with 20% Methanol (Proteonomics grade) (Apex BioResearch Products). Membranes were first incubated with 5% milk in TBST, pH 7.6 (TEKnova, Hollister, CA), followed by blotting with primary and secondary antibodies. ECL anti-rabbit IgG, horseradish peroxidase linked whole antibody from donkey or sheep anti-mouse were obtained from GE Healthcare (UK limited). SuperSignal West Dura Extended Duration substrate was from ThermoFisher Scientific. In some cases, the same PVDF membranes were stripped by 8-min incubation in the Restore Plus Western Blot Stripping Buffer (ThermoFisher Scientific) to show total specific protein expression, followed by second stripping for β-actin expression. BCECs were plated in 10 cm cell culture dishes 3 days prior to the cell surface protein isolation. Cells were washed three times with Dulbecco's PBS with CaCl2 and MgCl2, followed by a 30 min incubation with EZ-Link Sulfo-NHS-SS-Biotin (Pierce, Rockford, IL, USA; 0.5 mg/ml in Dulbecco) on ice. […] For cell lysis 500 […]1 of lysis buffer (2% NP-40, 1% Triton X-100, 10% glycerol, 100 uM oxidized glutathione, EDTA free protease inhibitor tablet (Roche, Mannheim, Germany) in PBS was added to the cells. Lysed cell extracts were scraped off the plates and transferred to an Eppendorf tube followed by incubation on ice on a shaker for 30 mins. The cell extracts were incubated with 30 U of DNase (22° C. 50 mins, Roche, Mannheim, Germany) and centrifuged for 20 mins (20,800×g, at 4° C.) to pellet the insoluble material. The protein concentration of the supernatants was determined. Equal amounts of protein ( 2 mg) from each extract were used for cell surface protein isolation. […]

U87MG = U87MG proliferation assay; assay type: cell-based, human
Description: Proliferation assays with fibroblasts were done in low-glucose DMEM containing 1% FBS, with or without 10 ng/ml bFGF, or 100 ng/ml human EGF and the assay was ended at day 3. ARPE-19 cells were gently lifted with 0.025% trypsin and plated in RtEGM media (Clonetics) containing 2% FBS, L-glutamine, human bFGF and GA-1000. Once cells were attached to plates, serum-free RtEGM media was used to maintain the cultures. For proliferation assays, 1500 human RPE cells were plated into 96-well plates in low-glucose DMEM containing 1% FBS. A673, U87MG, Calu6 and AML12 cells were grown until confluent and were then harvested and re-suspended in appropriate assay media. For proliferation assays, cells were plated at the density of 1000-2000 cells/well in low-glucose DMEM containing 5% FBS or otherwise stated. Bovine pituitary cells (pituitary folliculostellate cells) were isolated as previously described. For proliferation assays with human epidermal keratinocytes, human DMVECs and human dermal fibroblast cells, 1000 cells/well were plated in low-glucose DMEM containing 1% FBS with or without various growth factors. The assay was ended at day 3 for bovine pituitary cells and at day 4 for all the other cell types. […] Four days later, tumor cell growth was measured by the MTS assay (Promega, Madison, WI), a colorimetric assay that measures metabolic activity of viable cells. […]

N[C@H](C=O)[C@@H](O)[C@H](O)[C@H](O)CO [ManN, 2-Amino-2-deoxy-D-mannose]
HUVEC wound closure (HUVEC): stimulation of migration and wound closure | amount of VEGFR2 on cell surface (biotinylation) (VEGFR2): no changes in the amount of VEGFR2 on cell surface | transcription of VEGF, VEGFR2, GLUT1 & 4 and total VEGFR2 protein expression (VEGFR2; 4 hours (gene) or 24 hours (protein)): neither transcription of VEGF, VEGFR2 and GLUT1 & 4 nor total VEGFR2 protein expression was significantly changed | VEGFR2 phosphorylation in response to VEGF (VEGFR2; ManN pre-treated cells): decreased | ligand-independent VEGFR2 activation (VEGFR2; after ManN addition): No ligand-independent VEGFR2 activation occurred | growth of U87MG (U87MG): did not promote growth
